Assay results reported in paper PMC9538944, “In vitro biotransformation assays using fish liver cells: Comparing rainbow trout and carp hepatocytes” (Frontiers in Toxicology, 2022).
Marks after values point to notes of the source that are not given here.

Tests used:
[1] = test system: common carp hepatocytes; assay: In vitro hepatocyte clearance assay (substrate depletion), carp; assay type: in vitro ADME, Cyprinus carpio; details: 20 °C, 2 µM MXC / 0.5 µM BaP, mean over in vitro runs
Method: (§1) Isolation of hepatocytes from liver of rainbow trout was performed by a two-step collagenase perfusion procedure which is well established for rainbow trout ([Nabb et al., 2006]; [Fay et al., 2015]). […] In previous studies with common carp, an in vitro digestion method was used to isolate hepatocytes ([Cowan-Ellsberry et al., 2008]; [Dyer et al., 2008]). Here, we adopted the method of [Segner et al. (1993)] who used a two-step collagenase perfusion of carp liver via the Arteria coeliaca for cell isolation. With the perfusion method, the percentage of pancreatic cells in the final cell suspension is typically <5% ([Vogt and Segner, 1997]). Cryopreservation and thawing procedures applied for hepatocytes of both species were based on the standard protocols for rainbow trout ([Fay et al., 2014a]; [Fay et al., 2014b]). The viability of the cells was determined by means of the trypan blue exclusion assay and counting of stained and non-stained cells in a hemocytometer. The carp and trout primary hepatocyte suspensions used in the present study were aliquots of the in vitro preparations used in a previous study investigating the in vitro metabolite patterns of MXC ([Bischof et al., 2016]). A detailed description of the methods and materials used for the preparation of hepatocyte suspensions including the procedures for cell isolation, cryopreservation, and thawing, as well as cell counting, diluting to the target cell concentration, and heat-inactivating can therefore be taken from [Bischof et al. (2016)] and from the cited publications.
(§2) The in vitro hepatocyte clearance experiments were performed in a substrate depletion approach according to the methods previously published by [Fay et al. (2014b)]. These methods are in accordance with the procedures provided in the OECD TG 319A on the performance of in vitro hepatocyte clearance assays. In the present study, several in vitro runs with MXC and BaP using suspensions of either freshly isolated or cryopreserved hepatocytes from common carp and rainbow trout were carried out. For the different in vitro runs non-pooled hepatocytes were used, i.e. hepatocytes from different individual fish. For each run, triplicates of live cells (3 × 1 ml at nominal 2 × 10^6 cells/mL) and heat-inactivated cells as controls were dosed with the test chemical dissolved in acetonitrile (ACN) at the targeted concentration (2 µM for MXC and 0.5 µM for BaP) and incubated for 4 h at 15 °C (trout) or 20 °C (carp). MXC and BaP reactions were run side by side in the same in vitro run using the same hepatocyte suspensions. […]
(§3) Measured values of parent chemical concentration were log10-transformed and plotted against time. […]

[2] = test system: rainbow trout hepatocytes; assay: In vitro hepatocyte clearance assay (substrate depletion), trout; assay type: in vitro ADME, Oncorhynchus mykiss; details: 15 °C, 4 h, 2 µM MXC / 0.5 µM BaP, mean over in vitro runs
Method: as §1, §2, §3

[3] = design: method as in Fay et al., 2014b; details: ref Fay et al., 2014b; cited from earlier work
[4] = cryopreserved carp hepatocytes, 4 h time point excluded
[5] = freshly isolated carp hepatocytes, 4 h, nominal 2 × 10^6 cells/mL
[6] = cryopreserved trout hepatocytes
[7] = freshly isolated trout hepatocytes

Compound | Mean in vitro intrinsic clearance (CLin vitro, int) [1, 4] [mL/h/10^6 cells] | Mean in vitro intrinsic clearance (CLin vitro, int) [1, 5] | Mean in vitro intrinsic clearance (CLin vitro, int) [2, 6] [mL/h/10^6 cells] | Mean in vitro intrinsic clearance (CLin vitro, int) [2, 7] [mL/h/10^6 cells] | log KOW [3]
c1ccc2c(c1)cc1ccc3cccc4ccc2c1c34 [BaP, benzo[a]pyrene] | 0.287 | 0.198^* mL/h/10^6 cells | 0.243 | 0.251 | 5.99
COc1ccc(C(c2ccc(OC)cc2)C(Cl)(Cl)Cl)cc1 [MXC, methoxychlor] | 0.204 | 0.287^* mL/h/10^6 cells | 0.283 | 0.250 | 5.08
